# Measured values published in patent US7147837B2, “Bioactivated diagnostic imaging constrast agents” (Epix Pharmaceuticals, Inc., priority 1996, dated 2006).
# Read-outs that look alike come from different tables or passages of the source.
# Columns and labels:
# [1] = biological target: T1, human serum albumin (HSA) (Homo sapiens, UniProt P02768); assay: Longitudinal relaxivity (R1) in PBS containing 4.5% HSA; assay type: physicochemical; conditions: for Relaxivity in 4.5% HSA: longitudinal relaxivity R1, 20 MHz, 37° C., PBS pH 7.4 with 4.5% HSA, unit from R1 definition, not in table
# T1 sequence (P02768 25-609): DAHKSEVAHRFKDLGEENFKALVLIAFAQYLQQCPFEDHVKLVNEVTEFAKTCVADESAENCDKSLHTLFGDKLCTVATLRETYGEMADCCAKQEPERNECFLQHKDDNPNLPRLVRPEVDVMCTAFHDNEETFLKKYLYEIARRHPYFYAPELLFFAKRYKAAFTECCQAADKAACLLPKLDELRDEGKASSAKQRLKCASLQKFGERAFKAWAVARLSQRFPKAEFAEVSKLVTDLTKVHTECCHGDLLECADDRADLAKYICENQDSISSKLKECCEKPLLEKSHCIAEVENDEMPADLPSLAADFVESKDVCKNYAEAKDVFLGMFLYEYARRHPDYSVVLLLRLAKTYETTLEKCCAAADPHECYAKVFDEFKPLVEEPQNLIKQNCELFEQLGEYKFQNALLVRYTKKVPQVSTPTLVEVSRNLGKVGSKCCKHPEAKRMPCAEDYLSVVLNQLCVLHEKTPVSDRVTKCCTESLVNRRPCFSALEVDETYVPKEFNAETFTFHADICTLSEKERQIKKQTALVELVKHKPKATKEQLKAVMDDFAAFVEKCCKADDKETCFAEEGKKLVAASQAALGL
# Text: The magnetic resonance phenomena is complex, and different paramagnetic materials alter the MRI signal to various degrees. See R. B. Lauffer, Chemical Reviews (1987), 87, pp. 901–927. A quantitative measurement of the ability of a contrast agent to relax water protons, and consequently affect the MRI image, is provided by its relaxivity. Relaxivity is the dependence of water proton signal intensity upon the concentration of paramagnetic metal ion in solution. Relaxivity is defined as the induced T1 or T2 relaxation per unit time (R1 or R2 in units of mM^−1 sec^−1) observed for a contrast agent, where the concentration of the agent is expressed in a millimolar (mM).
# The degree to which an agent has been tuned for maximum relaxivity can be assessed by measuring the relaxivity-bound (R1-bound) in the presence of HSA. This requires measuring the relaxivity of the free chelate (R1-free) as well as the relaxivity (R1-observed) and percent binding of the agent in 4.5% HSA. The R1-observed is a mole fraction weighted average of R1-free and R1-bound: R1-observed=(fraction-free*R1-free)+(fraction-bound*R1-bound) Thus:
# (§1) In Table V, the longitudinal relaxivities (R1) were obtained at 20 MHz and 37° C. by determining the concentration dependent relaxation rate (1/T1) of water protons in phosphate buffered saline (PBS, 150 mM NaCl, 10 mM phosphate, pH=7.4) or in PBS solutions containing 4.5% human serum albumin (HSA). The percent bound to HSA was determined by ultrafiltration of a 0.1 mM chelate, 4.5% HSA solution.
# alkaline phosphatase [2] = assay: T1-weighted MRI scan at 1.0 Tesla of 4.5% HSA solutions with or without alkaline phosphatase; assay type: biochemical
# Experimental: Solutions of 4.5% HSA containing compounds 1 and 8 (0.1–0.2 mM) were prepared. After 15 minutes, an initial T1-weighted MRI scan (FISP-3D, TR=60, TE=5, alpha=60) at 1.0 Tesla of the 4.5% HSA solutions was obtained. […] Three units of alkaline phosphatase were added to half of the HSA solutions containing 1 and additional T1-weighted MRI scans were obtained. After 130 minutes, the solutions that contained 1 and alkaline phosphatase obtained 96% of the signal intensity that for the solutions that contain 8 at equivalent concentrations. […] A 20% increase in signal intensity was observed after addition of alkaline phosphatase to solutions containing 1.
# alkaline phosphatase [3] = assay: Bioactivation of prodrug by alkaline phosphatase in 4.5% HSA, 1/T1 monitored over time; assay type: biochemical; conditions: for 1/T1: 4.5% HSA, three units alkaline phosphatase, 20 MHz
# Experimental: A solution of prodrug 1 (0.3 mM) was prepared in PBS buffer (pH 7) containing 4.5% HSA. […] Three units of alkaline phosphatase (1 unit converts […] of p-nitrophenylphosphate to p-nitrophenol per minute in phosphate buffered saline at 0.1 mM substrate) were added to the 4.5% HSA solution of compound 1 and the 1/T1 was monitored over time.
# [4] = biological target: T1, human serum albumin (HSA); assay: Percent bound to HSA by ultrafiltration; assay type: binding; conditions: for Percent Binding in 4.5% HSA: ultrafiltration, 0.1 mM chelate
# Experimental: Protein binding of contrast agents can be assessed in vitro by equilibrium dialysis or ultrafiltration using a physiologically relevant protein concentration in buffer. See, G. N. Rolinson and R. Sutherland, British J. Pharmac. Chemother. (1965), 25, p. 638 (ultrafiltration); D. Glick, Methods Biochem. Anal. (1956), 3 p. 265 (equilibrium dialysis). The protein binding measurements set forth in this application are determined by ultrafiltration using 4.5% (w/w) human serum albumin in phosphate buffered saline (0.15 NaCl, 10 mM phosphate, pH 7.4). Preferably at least 10%, and more preferably at least 50%, and even more preferably at least 80%, and most preferably at least 95%, of an activated protein-binding contrast agent will be bound to the protein under physiologically relevant conditions. In this application, the measurement of percent binding of the contrast agent to HSA has an error of approximately +/−5%. Protein binding to other proteins or to serum can be assessed in a similar fashion.
# as §1
# HSA [5] = biological target: T2, HSA (Homo sapiens, UniProt P02768); conditions: cited from earlier work
# T2 sequence (P02768 25-609): as above
# HSA [6] = biological target: T2, HSA; conditions: cited from earlier work; remark: listed apart in the source
# [7] = test system: alpha 1-acid glycoprotein (AAG); conditions: binding to AAG; cited from earlier work
# [8] = cited from earlier work
# HSA [9] = biological target: T2, HSA; conditions: cited from earlier work; remark: listed apart in the source
smiles,measurement,setting,value
"O=C(O)CN(CCN(CC(=O)O)CC(COc1ccc(-c2ccc(OP(=O)(O)O)cc2)cc1)N(CC(=O)O)CC(=O)O)CC(=O)O (centres unmarked) (Gd complex, metal not drawn) [Compound 1]",Relaxivity in 4.5% HSA,[1],15.9 ± 0.2 mM⁻¹ s⁻¹
same,MRI image without alkaline phosphatase,"alkaline phosphatase [2]; 4.5% HSA, no alkaline phosphatase, during the MRI scans",remained as constant dark images
same,increase in signal intensity,alkaline phosphatase [2]; after addition of alkaline phosphatase,20%
same,signal intensity relative to solutions containing 8,"alkaline phosphatase [2]; with three units alkaline phosphatase, after 130 minutes, equivalent concentrations",96%
same,change in 20 MHz proton relaxation rate 1/T1 with time,"alkaline phosphatase [3]; 0.3 mM in PBS (pH 7) with 4.5% HSA, before addition of alkaline phosphatase",No change
same,1/T1,"alkaline phosphatase [3]; 0.3 mM prodrug in PBS (pH 7), time 0 min",4.440 s⁻¹
same,1/T1,"alkaline phosphatase [3]; 0.3 mM, time 1 min",4.348 s⁻¹
same,1/T1,"alkaline phosphatase [3]; 0.3 mM, time 2 min",4.651 s⁻¹
same,1/T1,"alkaline phosphatase [3]; 0.3 mM, time 4 min",4.878 s⁻¹
same,1/T1,"alkaline phosphatase [3]; 0.3 mM, time 6 min",5.025 s⁻¹
same,1/T1,"alkaline phosphatase [3]; 0.3 mM, time 14 min",5.376 s⁻¹
same,1/T1,"alkaline phosphatase [3]; 0.3 mM, time 48 min",6.250 s⁻¹
same,1/T1,"alkaline phosphatase [3]; 0.3 mM, time 90 min",6.849 s⁻¹
same,1/T1,"alkaline phosphatase [3]; 0.3 mM, time 110 min",7.042 s⁻¹
same,1/T1,"alkaline phosphatase [3]; 0.3 mM, time 137 min",7.299 s⁻¹
same,approximate expected increase in signal intensity,alkaline phosphatase [3]; corresponding to the change in 1/T1 upon complete activation,~24%
same,change in 1/T1 from time zero,alkaline phosphatase [3]; upon completion of enzymatic activation of 1 to 8,2.86 s⁻¹
same,Percent Binding in 4.5% HSA,[4],47 ± 1%
O=C(O)CN(CCN(CC(=O)O)CC(COc1ccc(-c2ccc(O)cc2)cc1)N(CC(=O)O)CC(=O)O)CC(=O)O (centres unmarked) [Compound 8],relaxivity compared with prodrug,"[1]; bound to HSA, 0.1 mM",higher relaxivity
same,Relaxivity in 4.5% HSA,[1],26.4 ± 0.4 mM⁻¹ s⁻¹
same,brightness of T1-weighted MRI scan,"alkaline phosphatase [2]; 0.1–0.2 mM in 4.5% HSA, 1.0 Tesla, equivalent concentrations, no enzyme",brighter than the solutions containing 1
same,HSA binding affinity compared with prodrug,[4]; concentration of 0.1 mM,greater affinity than prodrug 1
same,Percent Binding in 4.5% HSA,[4],63 ± 2%
CCn1cc(C(=O)O)c(=O)c2cc(F)c(N3CCNC(C)C3)c(F)c21 (centres unmarked) [NY-198],fraction bound to HSA (fb),HSA [5],0.28
C[C@H](CCC(=O)O)[C@H]1CC[C@H]2[C@@H]3[C@H](O)C[C@@H]4C[C@H](O)CC[C@]4(C)[C@H]3CC[C@]12C [chenodeoxycholic acid],binding constant,HSA [6],5.5×10^4
CN(C)CCCN1c2ccccc2Sc2ccc(Cl)cc21 [chlorpromazine],Ka,[7],35.4×10^5
CCn1cc(C(=O)O)c(=O)c2cc(F)c(N3CCNCC3)nc21 [enoxacin],fraction bound to HSA (fb),HSA [5],0.35
CC1(C)C(/C=C/C=C/C=C/C=C2\N(CCCCS(=O)(=O)O)c3ccc4ccccc4c3C2(C)C)=[N+](CCCCS(=O)(=O)[O-])c2ccc3ccccc3c21 [indocyanine green],maximal absorbance,[8]; before binding to proteins,770–780 nm
same,maximal absorbance,[8]; upon binding to proteins in plasma or blood,790–805 nm
O=C(CCCCC(=O)Nc1c(I)cc(I)c(C(=O)O)c1I)Nc1c(I)cc(I)c(C(=O)O)c1I [iodipamide],binding to HSA,HSA [9],> 98%
COn1cc(C(=O)O)c(=O)c2cc3c(cc21)OCO3 [miloxacin],fraction bound to HSA (fb),HSA [5],0.86
CCn1cc(C(=O)O)c(=O)c2ccc(C)nc21 [nalidixic acid],fraction bound to HSA (fb),HSA [5],0.71
